From ChEMBL document CHEMBL1201862, “PubChem BioAssay data set” (2004)
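These data come from cells grown in 96-well plates and exposed to compound for 48 hours at five concentrations. GI50: concentration for 50% inhibition of growth.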 Active and inactive are the calls of the source. No stated cut-off is given here; in the data, active = GI50 up to about 1.1 µM and inactive = higher.

Key:
Assay in all cases: DTP human tumour cell line panel, 48 h
786-0 = tested on: 786-0
A498 = tested on: A498
A549 = tested on: A549
ACHN = tested on: ACHN
CAKI-1 = tested on: CAKI-1
CCRF-CEM = tested on: CCRF-CEM
COLO 205 = tested on: COLO 205
DLD-1 = tested on: DLD-1
DMS-114 = tested on: DMS-114
DMS-273 = tested on: DMS-273
EKVX = tested on: EKVX
HCC 2998 = tested on: HCC 2998
HCT-116 = tested on: HCT-116
HCT-15 = tested on: HCT-15
HL-60 = tested on: HL-60
HOP-18 = tested on: HOP-18
HOP-62 = tested on: HOP-62
HOP-92 = tested on: HOP-92
HT-29 = tested on: HT-29
IGROV-1 = tested on: IGROV-1
K562 = tested on: K562
KM-20L2 = tested on: KM-20L2
KM12 = tested on: KM12
LOX IMVI = tested on: LOX IMVI
LXFL 529 = tested on: LXFL 529
M14 = tested on: M14
M19-MEL = tested on: M19-MEL
MOLT-4 = tested on: MOLT-4
Malme-3M = tested on: Malme-3M
NCI-H226 = tested on: NCI-H226
NCI-H23 = tested on: NCI-H23
NCI-H460 = tested on: NCI-H460
NCI-H522 = tested on: NCI-H522
OVCAR-3 = tested on: OVCAR-3
OVCAR-4 = tested on: OVCAR-4
OVCAR-5 = tested on: OVCAR-5
OVCAR-8 = tested on: OVCAR-8
RPMI-8226 = tested on: RPMI-8226
RXF 393 = tested on: RXF 393
SF-268 = tested on: SF-268
SF-295 = tested on: SF-295
SK-MEL-28 = tested on: SK-MEL-28
SK-MEL-2 = tested on: SK-MEL-2
SK-MEL-5 = tested on: SK-MEL-5
SK-OV-3 = tested on: SK-OV-3
SN12C = tested on: SN12C
SNB-19 = tested on: SNB-19
SNB-75 = tested on: SNB-75
SNB-78 = tested on: SNB-78
SR = tested on: SR
SW-620 = tested on: SW-620
TK-10 = tested on: TK-10
U-251 = tested on: U-251
UACC-257 = tested on: UACC-257
UACC-62 = tested on: UACC-62
UO-31 = tested on: UO-31
SF-539 = tested on: SF-539

CCOC(=O)/C=C1\Oc2ccccc2C1(C)O (configuration not stated)
GI50 (786-0): > 100 µM (inactive) | GI50 (A498): > 100 µM (inactive) | GI50 (A549): > 100 µM (inactive) | GI50 (ACHN): > 100 µM (inactive) | GI50 (CAKI-1): > 100 µM (inactive) | GI50 (CCRF-CEM): > 100 µM (inactive) | GI50 (COLO 205): > 100 µM (inactive) | GI50 (DLD-1): > 100 µM (inactive) | GI50 (DMS-114): > 100 µM (inactive) | GI50 (DMS-273): > 100 µM (inactive) | GI50 (EKVX): > 100 µM (inactive) | GI50 (HCC 2998): > 100 µM (inactive) | GI50 (HCT-116): > 100 µM (inactive) | GI50 (HCT-15): > 100 µM | GI50 (HL-60): > 100 µM (inactive) | GI50 (HOP-18): > 100 µM (inactive) | GI50 (HOP-62): > 100 µM (inactive) | GI50 (HOP-92): > 100 µM (inactive) | GI50 (HT-29): > 100 µM (inactive) | GI50 (IGROV-1): > 100 µM (inactive) | GI50 (K562): > 100 µM (inactive) | GI50 (KM-20L2): > 100 µM (inactive) | GI50 (KM12): > 100 µM (inactive) | GI50 (LOX IMVI): > 100 µM (inactive) | GI50 (LXFL 529): > 100 µM (inactive) | GI50 (M14): > 100 µM (inactive) | GI50 (M19-MEL): > 100 µM (inactive) | GI50 (MOLT-4): > 100 µM (inactive) | GI50 (Malme-3M): > 100 µM (inactive) | GI50 (NCI-H226): > 100 µM (inactive) | GI50 (NCI-H23): > 100 µM (inactive) | GI50 (NCI-H460): > 100 µM (inactive) | GI50 (NCI-H522): > 100 µM (inactive) | GI50 (OVCAR-3): > 100 µM (inactive) | GI50 (OVCAR-4): > 100 µM (inactive) | GI50 (OVCAR-5): > 100 µM (inactive) | GI50 (OVCAR-8): > 100 µM (inactive) | GI50 (RPMI-8226): > 100 µM (inactive) | GI50 (RXF 393): > 100 µM (inactive) | GI50 (SF-268): > 100 µM (inactive) | GI50 (SF-295): > 100 µM (inactive) | GI50 (SK-MEL-28): > 100 µM (inactive) | GI50 (SK-MEL-2): > 100 µM (inactive) | GI50 (SK-MEL-5): > 100 µM (inactive) | GI50 (SK-OV-3): > 100 µM (inactive) | GI50 (SN12C): > 100 µM (inactive) | GI50 (SNB-19): > 100 µM (inactive) | GI50 (SNB-75): > 100 µM (inactive) | GI50 (SNB-78): > 100 µM (inactive) | GI50 (SR): > 100 µM (inactive) | GI50 (SW-620): > 100 µM (inactive) | GI50 (TK-10): > 100 µM (inactive) | GI50 (U-251): > 100 µM (inactive) | GI50 (UACC-257): > 100 µM (inactive) | GI50 (UACC-62): > 100 µM (inactive) | GI50 (UO-31): > 100 µM (inactive)

O=C(CC/C(C/C(=N/O)c1ccc(F)cc1)=N/O)N(Cc1ccccc1)Cc1ccccc1
GI50 (786-0): > 100 µM (inactive) | GI50 (A498): > 100 µM (inactive) | GI50 (A549): > 100 µM (inactive) | GI50 (ACHN): > 100 µM (inactive) | GI50 (CAKI-1): > 100 µM (inactive) | GI50 (CCRF-CEM): > 100 µM (inactive) | GI50 (COLO 205): 73.8 µM (inactive) | GI50 (DLD-1): > 100 µM (inactive) | GI50 (DMS-114): > 100 µM (inactive) | GI50 (DMS-273): > 100 µM (inactive) | GI50 (EKVX): 58.6 µM (inactive) | GI50 (HCC 2998): > 100 µM (inactive) | GI50 (HCT-116): > 100 µM (inactive) | GI50 (HCT-15): > 100 µM | GI50 (HL-60): > 100 µM (inactive) | GI50 (HOP-18): > 100 µM (inactive) | GI50 (HOP-62): > 100 µM (inactive) | GI50 (HOP-92): > 100 µM (inactive) | GI50 (HT-29): > 100 µM (inactive) | GI50 (IGROV-1): > 100 µM (inactive) | GI50 (K562): > 100 µM (inactive) | GI50 (KM-20L2): > 100 µM (inactive) | GI50 (KM12): > 100 µM (inactive) | GI50 (LOX IMVI): > 100 µM (inactive) | GI50 (LXFL 529): > 100 µM (inactive) | GI50 (M14): > 100 µM (inactive) | GI50 (M19-MEL): > 100 µM (inactive) | GI50 (MOLT-4): > 100 µM (inactive) | GI50 (Malme-3M): > 100 µM (inactive) | GI50 (NCI-H226): > 100 µM (inactive) | GI50 (NCI-H23): > 100 µM (inactive) | GI50 (NCI-H460): > 100 µM (inactive) | GI50 (NCI-H522): > 100 µM (inactive) | GI50 (OVCAR-3): > 100 µM (inactive) | GI50 (OVCAR-4): > 100 µM (inactive) | GI50 (OVCAR-5): > 100 µM (inactive) | GI50 (OVCAR-8): > 100 µM (inactive) | GI50 (RPMI-8226): > 100 µM (inactive) | GI50 (RXF 393): > 100 µM (inactive) | GI50 (SF-268): > 100 µM (inactive) | GI50 (SF-295): > 100 µM (inactive) | GI50 (SF-539): > 100 µM (inactive) | GI50 (SK-MEL-28): > 100 µM (inactive) | GI50 (SK-MEL-2): > 100 µM (inactive) | GI50 (SK-MEL-5): > 100 µM (inactive) | GI50 (SN12C): > 100 µM (inactive) | GI50 (SNB-19): > 100 µM (inactive) | GI50 (SNB-75): > 100 µM (inactive) | GI50 (SW-620): > 100 µM (inactive) | GI50 (TK-10): > 100 µM (inactive) | GI50 (U-251): > 100 µM (inactive) | GI50 (UACC-257): > 100 µM (inactive) | GI50 (UACC-62): > 100 µM (inactive) | GI50 (UO-31): > 100 µM (inactive)

CC(C)(O)/C=C/C(=O)[C@](C)(O)[C@H]1[C@H](O)C[C@@]2(C)[C@@H]3CC=C4[C@@H](C[C@H](O)C(=O)C4(C)C)[C@]3(C)C(=O)C[C@]12C [CUCURBITACIN D]
GI50 (786-0): 0.1 µM (active) | GI50 (A498): 0.0506 µM (active) | GI50 (A549): 0.177 µM (active) | GI50 (CAKI-1): 0.116 µM (active) | GI50 (CCRF-CEM): 0.0687 µM (active) | GI50 (COLO 205): 0.181 µM (active) | GI50 (DLD-1): 0.0863 µM (active) | GI50 (DMS-114): 0.199 µM (active) | GI50 (DMS-273): 0.034 µM (active) | GI50 (EKVX): 0.375 µM (active) | GI50 (HCT-116): 0.112 µM (active) | GI50 (HL-60): 0.262 µM (active) | GI50 (HOP-18): 0.0748 µM (active) | GI50 (HOP-62): 0.198 µM (active) | GI50 (HOP-92): 0.195 µM (active) | GI50 (HT-29): 0.112 µM (active) | GI50 (IGROV-1): 0.376 µM (active) | GI50 (K562): 0.287 µM (active) | GI50 (KM-20L2): 0.163 µM (active) | GI50 (KM12): 0.624 µM (active) | GI50 (LOX IMVI): 0.0562 µM (active) | GI50 (LXFL 529): 0.073 µM (active) | GI50 (M14): 0.076 µM (active) | GI50 (M19-MEL): 0.391 µM (active) | GI50 (MOLT-4): 0.953 µM (active) | GI50 (Malme-3M): 0.0679 µM (active) | GI50 (NCI-H226): 0.277 µM (active) | GI50 (NCI-H23): 1.07 µM (active) | GI50 (NCI-H460): 0.0895 µM (active) | GI50 (NCI-H522): 0.128 µM (active) | GI50 (OVCAR-3): 0.201 µM (active) | GI50 (OVCAR-5): 1.04 µM (active) | GI50 (OVCAR-8): 0.65 µM (active) | GI50 (RPMI-8226): 0.0228 µM (active) | GI50 (RXF 393): 0.0964 µM (active) | GI50 (SF-268): 0.104 µM (active) | GI50 (SF-295): 0.344 µM (active) | GI50 (SF-539): 0.0826 µM (active) | GI50 (SK-MEL-28): 0.0653 µM (active) | GI50 (SK-MEL-2): 0.0543 µM (active) | GI50 (SK-OV-3): 0.281 µM (active) | GI50 (SN12C): 0.792 µM (active) | GI50 (SNB-19): 0.249 µM (active) | GI50 (SNB-75): 0.59 µM (active) | GI50 (SNB-78): 0.0867 µM (active) | GI50 (SR): 0.118 µM (active) | GI50 (SW-620): 0.0914 µM (active) | GI50 (TK-10): 0.239 µM (active) | GI50 (U-251): 0.0923 µM (active) | GI50 (UACC-257): 0.0968 µM (active) | GI50 (UACC-62): 0.0438 µM (active) | GI50 (UO-31): 0.272 µM (active)
